US5594157A, “Process for making taxol derivatives” (Abbott Laboratories, priority 1995, dated 1997)
Values after ≈ are worked out from the molar mass of the structure shown. Like-named read-outs stand apart in the source and are kept apart here.

How the values were obtained:
[1] = test system: A549; test: In vitro tumor cell cytotoxicity, three day MTT microtiter assay (A549); type: cell-based, human; settings: for IC50: Homo sapiens, read-out: In vitro tumor cell cytotoxicity (IC50)
Method: (§1) A three day microtiter assay was used to measure the growth inhibition of cultured cells exposed to a range of drug concentrations. Metabolic activity was measured by the cells' ability to reduce the tetrazolium dye, MTT (3-(4,5-dimethylthiazol-2-yl-2,5-diphenyltetrazolium bromide) to a quantifiable colored end product, which absorbs at 570 nm in the visible spectrum. Surviving cells reduce the MTT dye.
(§2) Test compounds were dissolved in dimethyl sulfoxide (DMSO) and diluted, first with Earle's Balanced Salt Solution, followed by culture medium, to twice the highest concentration of compound to be tested. From this concentrated stock, two-fold serial dilutions were prepared in 96-well microtiter trays, each well containing twice the desired final concentration of compound. Each concentration was tested in triplicate and compared to triplicate drug-free controls.
(§3) The cells were grown in the same medium used for diluting the compounds and then harvested using trypsinization. This involved removing the medium by aspiration; rinsing the cell monolayer twice with Earle's Balanced Salt Solution; adding trypsin (0.05%)/EDTA (0.53 mM; for each 25 cm^2, approximately 0.2 mL), tilting to cover the monolayer, and then withdrawing trypsin leaving only a thin film of solution; incubating at room temperature until the cell monolayers detached (as determined by visual and/or microscopic observation); adding medium contaiing fetal calf serum to stop the action of the trypsin and resuspend the cells; triturating to aid dissociation of cell clumps; and determining the number of cells per milliliter by electronic cell counter (e.g. Coulter Counter) or by mixing an aliquot of cell suspension with Trypan Blue (0.4% in normal saline) and counting the viable cells using a hemacytometer.
(§4) After harvesting and determination of viable cell counts, cell density was adjusted to 25,000 cells/mL. Inoculum (0.1 mL) containing the cells was then added to each well for a final concentration of 2,500 cells per well. Addition of the inoculum diluted the test compounds to the desired final concentration.
(§5) Microtiter trays were then incubated for three days at 36° C. in a humidified atmosphere containing 5% carbon dioxide. After three days, 20 microtiters of 5 mg/mL MTT in phosphate-buffered saline solution were added to each well. Trays were returned to the incubator for two to four hours to allow the surviving cells to reduce the dye. Medium and unreduced dye were removed by aspiration. DMSO was added to each well to dissolve the water-insoluble, colored end product of the dye reduction so that it could be measured spectrophotometrically at 570 nm.

[2] = test system: P-388; test: In vitro tumor cell cytotoxicity, three day MTT microtiter assay (P-388); type: cell-based, mouse; settings: for IC50: P388, 72 h, read-out: In vitro tumor cell cytotoxicity (IC50)
Method: as §1, §2, §3, §4, §5

[3] = 72 h, A549, 3 days, MTT, absorbance at 570 nm
[4] = P-388 (mouse leukemia), 3 days, MTT, absorbance at 570 nm

CC(=O)N[C@@H](c1ccccc1)[C@@H](O)C(=O)O[C@H]1C[C@@]2(O)[C@@H](OC(=O)c3ccccc3)[C@@H]3[C@]4(OC(C)=O)CO[C@@H]4C[C@H](O)[C@@]3(C)[C@@H](O)[C@H](OC(C)=O)C(=C1C)C2(C)C [Example 29, N-Debenzoyl-N-acetyl-9-dihydrotaxol]
IC50 [1, 3]: 2.1 mg/L (≈ 2.65 µM)
IC50 [2, 4]: 2.02 mg/L (≈ 2.54 µM)

CC(=O)O[C@@]12CO[C@@H]1C[C@H](O)[C@]1(C)[C@@H]2[C@H](OC(=O)c2ccccc2)[C@]2(O)C[C@H](OC(=O)[C@H](O)[C@@H](NC(=O)c3ccccc3)c3ccccc3)C(C)=C([C@@H](O)[C@@H]1O)C2(C)C [Example 9, 10-Deacetyl-9-dihydrotaxol]
In vitro tumor cell cytotoxicity (IC50) ([1]; A549, 3 days, MTT, absorbance at 570 nm): 0.011 mg/L
In vitro tumor cell cytotoxicity (IC50) [2, 4]: 0.14 mg/L

CC(=O)O[C@@H]1C2=C(C)[C@@H](OC(=O)[C@H](O)[C@@H](NC(=O)OC(C)C)c3ccccc3)C[C@@](O)([C@@H](OC(=O)c3ccccc3)[C@@H]3[C@]4(OC(C)=O)CO[C@@H]4C[C@H](O)[C@@]3(C)[C@H]1O)C2(C)C [Example 25, N-Debenzoyl-N-isopropoxycarbonyl-9-dihydrotaxol]
IC50 [1, 3]: 0.0012 mg/L (≈ 0.00143 µM)
IC50 [2, 4]: 0.0092 mg/L (≈ 0.011 µM)

CC(=O)O[C@@H]1C2=C(C)[C@@H](OC(=O)[C@H](O)[C@@H](NC(=O)C(C)(C)C)c3ccccc3)C[C@@](O)([C@@H](OC(=O)c3ccccc3)[C@@H]3[C@]4(OC(C)=O)CO[C@@H]4C[C@H](O)[C@@]3(C)[C@H]1O)C2(C)C [Example 28, N-Debenzoyl-N-pivaloyl-9-dihydrotaxol]
IC50 [1, 3]: 0.11 mg/L (≈ 0.132 µM)
IC50 [2, 4]: 0.083 mg/L (≈ 0.0993 µM)

CC(=O)O[C@@H]1C2=C(C)[C@@H](OC(=O)[C@H](O)[C@@H](NC(=O)OCc3ccccc3)c3ccccc3)C[C@@](O)([C@@H](OC(=O)c3ccccc3)[C@@H]3[C@]4(OC(C)=O)CO[C@@H]4C[C@H](O)[C@@]3(C)[C@H]1O)C2(C)C [Example 26, N-Debenzoyl-N-benzyloxycarbonyl-9-dihydrotaxol]
IC50 ([1]; A549, 72 h): 0.031 mg/L (≈ 0.035 µM)
IC50 ([2]; Mus musculus): 0.057 mg/L (≈ 0.0643 µM)

CCC1O[C@H]2C[C@H]3OC[C@@]3(OC(C)=O)[C@H]3[C@H](OC(=O)c4ccccc4)[C@]4(O)C[C@H](OC(=O)[C@H](O)[C@@H](NC(=O)c5ccccc5)c5ccccc5)C(C)=C([C@@H](OC(C)=O)[C@H](O1)[C@]23C)C4(C)C (stereo partly drawn) [Example 11, 9-Dihydrotaxol-7,9-propylidene acetal]
IC50 ([1]; A549, 72 h): 0.023 mg/L (≈ 0.0257 µM)
IC50 ([2]; Mus musculus): 0.022 mg/L (≈ 0.0246 µM)

CC(=O)O[C@@H]1C2=C(C)[C@@H](OC(=O)[C@H](O)[C@@H](NC(=O)c3ccccc3)c3ccccc3)C[C@@](O)([C@@H](OC(=O)c3ccccc3)[C@@H]3[C@]4(OC(C)=O)CO[C@@H]4C[C@@H]4OC(=S)O[C@@H]1[C@]43C)C2(C)C [Example 14, 9-Dihydrotaxol-7,9-thionocarbonate]
IC50 ([1]; A549, 72 h): 0.019 mg/L (≈ 0.0212 µM)
IC50 ([2]; Mus musculus): 0.035 mg/L (≈ 0.039 µM)

CC(=O)O[C@@H]1C2=C(C)[C@@H](OC(=O)[C@H](O)[C@@H](NC(=O)c3ccccc3)c3ccccc3)C[C@@](O)([C@@H](OC(=O)c3ccccc3)[C@@H]3[C@]4(OC(C)=O)CO[C@@H]4C[C@@H]4OC(CC(O)CO)O[C@@H]1[C@]43C)C2(C)C (stereo partly drawn) [Example 13, 9-Dihydrotaxol-7,9-(3,4-dihydroxy)butylidene acetal]
IC50 ([1]; A549, 72 h): 0.3 mg/L (≈ 0.318 µM)
IC50 ([2]; Mus musculus): 0.18 mg/L (≈ 0.191 µM)

CC(=O)O[C@@H]1C2=C(C)[C@@H](OC(=O)[C@H](O)[C@@H](NC(=O)c3ccccc3)c3ccccc3)C[C@@](O)([C@@H](OC(=O)c3ccccc3)[C@@H]3[C@]4(OC(C)=O)CO[C@@H]4C[C@@H]4OC(C)(C)O[C@@H]1[C@]43C)C2(C)C [Example 10, 9-Dihydrotaxol-7,9-isopropylidene ketal]
IC50 ([1]; A549, 72 h): 0.025 mg/L (≈ 0.0279 µM)
IC50 ([2]; Mus musculus): 0.042 mg/L (≈ 0.0469 µM)

CC(=O)O[C@@H]1C2=C(C)[C@@H](OC(=O)[C@H](O)[C@@H](NC(=O)c3ccccc3)c3ccccc3)C[C@@](O)([C@@H](OC(=O)c3ccccc3)[C@@H]3[C@]4(OC(C)=O)CO[C@@H]4C[C@@H]4OC(c5ccccc5)O[C@@H]1[C@]43C)C2(C)C (stereo partly drawn) [Example 12, 9-Dihydrotaxol-7,9-benzylidene acetal]
IC50 [1, 3]: 1 mg/L (≈ 1.06 µM)
IC50 [2, 4]: 1 mg/L (≈ 1.06 µM)

CC(=O)O[C@@H]1C2=C(C)[C@@H](OC(=O)[C@H](O)[C@@H](NC(=O)OCC(C)C)c3ccccc3)C[C@@](O)([C@@H](OC(=O)c3ccccc3)[C@@H]3[C@]4(OC(C)=O)CO[C@@H]4C[C@H](O)[C@@]3(C)[C@H]1O)C2(C)C [Example 23, N-Debenzoyl-N-isobutoxycarbonyl-9-dihydrotaxol]
IC50 ([1]; A549, 72 h): 0.0043 mg/L (≈ 0.00505 µM)
IC50 ([2]; Mus musculus): 0.028 mg/L (≈ 0.0329 µM)

CC(=O)O[C@@H]1C2=C(C)[C@@H](OC(=O)[C@H](O)[C@@H](NC(=O)NC(C)(C)C)c3ccccc3)C[C@@](O)([C@@H](OC(=O)c3ccccc3)[C@@H]3[C@]4(OC(C)=O)CO[C@@H]4C[C@H](O)[C@@]3(C)[C@H]1O)C2(C)C [Example 30, N-Debenzoyl-N-t-butylcarbamyl-9-dihydrotaxol]
IC50 ([1]; A549, 72 h): 0.014 mg/L (≈ 0.0165 µM)
IC50 ([2]; Mus musculus): 0.017 mg/L (≈ 0.02 µM)

CC(=O)O[C@@H]1C2=C(C)[C@@H](OC(=O)[C@H](O)[C@@H](NC(=O)OC34CC5CC(CC(C5)C3)C4)c3ccccc3)C[C@@](O)([C@@H](OC(=O)c3ccccc3)[C@@H]3[C@]4(OC(C)=O)CO[C@@H]4C[C@H](O)[C@@]3(C)[C@H]1O)C2(C)C [Example 24, N-Debenzoyl-N-adamantoxycarbonyl-9-dihydrotaxol]
IC50 ([1]; A549, 72 h): 0.0043 mg/L (≈ 0.00462 µM)
IC50 ([2]; Mus musculus): 0.01 mg/L (≈ 0.0108 µM)

CC(=O)O[C@@]12CO[C@@H]1C[C@H](O)[C@]1(C)[C@@H]2[C@H](OC(=O)c2ccccc2)[C@]2(O)C[C@H](OC(=O)[C@H](O)[C@@H](NC(=O)OC(C)(C)C)c3ccccc3)C(C)=C([C@@H](O)[C@@H]1O)C2(C)C [Example 21, 10-Deacetyl-N-debenzoyl-N-t-butoxycarbonyl-9-dihydrotaxol]
IC50 [1, 3]: 0.00026 mg/L (≈ 0.000321 µM)
IC50 [2, 4]: 0.0028 mg/L (≈ 0.00346 µM)

CC(=O)O[C@@H]1C2=C(C)[C@@H](OC(=O)[C@H](O)[C@@H](NC(=O)c3ccccc3)c3ccccc3)C[C@@](O)([C@@H](OC(=O)c3ccccc3)[C@@H]3[C@]4(OC(C)=O)CO[C@@H]4C[C@H](OCC(O)CO)[C@@]3(C)[C@H]1O)C2(C)C (stereo partly drawn) [Example 16, 9-dihydrotaxol 7-O-(2,3-dihydroxypropyl) ether]
IC50 [1, 3]: 0.626 mg/L (≈ 0.673 µM)
IC50 [2, 4]: > 1 mg/L

CCN(CC)CCO[C@H]1C[C@H]2OC[C@@]2(OC(C)=O)[C@H]2[C@H](OC(=O)c3ccccc3)[C@]3(O)C[C@H](OC(=O)[C@H](O)[C@@H](NC(=O)c4ccccc4)c4ccccc4)C(C)=C([C@@H](OC(C)=O)[C@H](O)[C@]12C)C3(C)C [Example 17]
IC50 ([1]; A549, 72 h): 0.4 mg/L (≈ 0.419 µM)
IC50 ([2]; Mus musculus): 0.31 mg/L (≈ 0.325 µM)

CC(=O)O[C@@H]1C2=C(C)[C@@H](OC(=O)[C@H](O)[C@@H](NC(=O)OC(C)(C)C)c3ccccc3)C[C@@](O)([C@@H](OC(=O)c3ccccc3)[C@@H]3[C@]4(OC(C)=O)CO[C@@H]4C[C@H](O)[C@@]3(C)[C@H]1O)C2(C)C [Example 20, N-Debenzoyl-N-t-butoxycarbonyl-9-dihydrotaxol]
IC50 [1, 3]: 0.0003 mg/L (≈ 0.000352 µM)
IC50 [2, 4]: 0.0025 mg/L (≈ 0.00293 µM)

CC(=O)O[C@@H]1C2=C(C)[C@@H](OC(=O)[C@H](O)[C@@H](NC(=O)c3ccccc3)c3ccccc3)C[C@@](O)([C@@H](OC(=O)c3ccccc3)[C@@H]3[C@]4(OC(C)=O)CO[C@@H]4C[C@H](O)[C@@]3(C)[C@H]1O)C2(C)C [Example 8, 9-Dihydrotaxol]
IC50 ([1]; A549, 72 h): 0.016 mg/L (≈ 0.0187 µM)
IC50 ([2]; Mus musculus): 0.049 mg/L (≈ 0.0572 µM)

CC(=O)O[C@@H]1C2=C(C)[C@@H](OC(=O)[C@H](O)[C@@H](NC(=O)CC(C)(C)C)c3ccccc3)C[C@@](O)([C@@H](OC(=O)c3ccccc3)[C@@H]3[C@]4(OC(C)=O)CO[C@@H]4C[C@H](O)[C@@]3(C)[C@H]1O)C2(C)C [Example 22, N-Debenzoyl-N-t-butylacetyl-9-dihydrotaxol]
IC50 [1, 3]: 0.027 mg/L (≈ 0.0318 µM)
IC50 [2, 4]: 0.052 mg/L (≈ 0.0612 µM)

C=CCO[C@H]1C[C@H]2OC[C@@]2(OC(C)=O)[C@H]2[C@H](OC(=O)c3ccccc3)[C@]3(O)C[C@H](OC(=O)[C@H](O)[C@@H](NC(=O)c4ccccc4)c4ccccc4)C(C)=C([C@@H](OC(C)=O)[C@H](O)[C@]12C)C3(C)C [Example 15, 9-Dihydrotaxol-7-O-allyl ether]
IC50 ([1]; A549, 72 h): 0.001 mg/L (≈ 0.00112 µM)
IC50 ([2]; Mus musculus): 0.0053 mg/L (≈ 0.00592 µM)

CC(=O)OCCO[C@H]1C[C@H]2OC[C@@]2(OC(C)=O)[C@H]2[C@H](OC(=O)c3ccccc3)[C@]3(O)C[C@H](OC(=O)[C@H](O)[C@@H](NC(=O)c4ccccc4)c4ccccc4)C(C)=C([C@@H](OC(C)=O)[C@H](O)[C@]12C)C3(C)C [Example 19, 9-Dihydrotaxol 7-O-(2-Acetoxyethyl) ether]
IC50 [1, 3]: 0.12 mg/L (≈ 0.127 µM)
IC50 [2, 4]: 0.079 mg/L (≈ 0.0839 µM)
